Test: xn = mol fraction of the nth substance listed
Conditions: 101 kPa, Liquid; for mass density: Vibrating tube method; for speed of sound: fixed-path interferometer; for viscosity: Capillary tube (Ostwald / Ubbelohde) method

CCCCOCCO [2-butoxyethan-1-ol] + CCCCCCO
Conditions | mass density, 293.15 K [kg/m3] | mass density, 298.15 K [kg/m3] | mass density, 303.15 K [kg/m3] | speed of sound, 293.15 K [m/s] | speed of sound, 298.15 K [m/s] | viscosity, 298.15 K [mPa·s] | viscosity, 303.15 K [mPa·s]
x1 = 0.0535 | 823.637 | 820.01 | 816.368 | 1320 | 1303.1 | 4.359 | 3.706
x1 = 0.1046 | 827.82 | 824.093 | 820.503 | 1319.4 | 1302.6 | 4.133 | 3.56
x1 = 0.1546 | 831.917 | 828.161 | 824.557 | 1319.1 | 1302.2 | 4.004 | 3.421
x1 = 0.2054 | 836.077 | 832.312 | 828.676 | 1318.8 | 1301.8 | 3.821 | 3.3
x1 = 0.253 | 839.982 | 836.221 | 832.536 | 1318.5 | 1301.6 | 3.691 | 3.19
x1 = 0.2999 | 843.819 | 840.066 | 836.324 | 1318.3 | 1301.4 | 3.616 | 3.1
x1 = 0.4044 | 852.353 | 848.606 | 844.739 | 1318.3 | 1301.3 | 3.464 | 2.916
x1 = 0.5039 | 860.457 | 856.686 | – | 1318.5 | 1301.5 | 3.305 | 2.781
x1 = 0.5932 | 867.724 | 863.892 | – | 1318.9 | 1301.8 | 3.139 | 2.694
x1 = 0.7003 | 876.414 | 872.492 | – | 1319.6 | 1302.6 | 3.046 | 2.631
x1 = 0.8019 | 884.63 | 880.623 | – | 1320.7 | 1303.6 | 2.996 | 2.583
x1 = 0.8545 | 888.867 | 884.811 | – | 1321.4 | 1304.3 | 2.908 | 2.573
x1 = 0.8987 | 892.418 | 888.334 | – | 1322 | 1305 | 2.897 | 2.595
x1 = 0.9522 | 896.698 | 892.569 | – | 1322.8 | 1305.7 | 2.871 | 2.613

Reference: the NIST ThermoML archive (doi:10.1016/j.jct.2013.04.021)
